These results are taken from patent publication US8728787B2, “Fungal laccases and uses thereof” (Academia Sinica, priority 2010, dated 2014).

Where two headings read alike, the source gives them in different places.

Data set [1] has as its system Lentinus sp. laccase, wild type, purified from culture. Nature of the data set: Laccase kinetics of purified Lentinus sp. laccase. Format: biochemical. How it is done: All chemicals used in this study were obtained from Merck (Darmstadt, Germany) or Sigma-Aldrich (St. Louis, Mo. USA). All spectrophotometric measurements were performed using the Beckman DU 640 spectrophotometer (Beckman Coulter, USA).
Kinetic parameters Km and Vmax were determined as follows. […] The oxidation reactions of guaiacol and 2,6-DMP were monitored by determining OD436 values (ε=6,400 M^−1cm^−1) and OD468 values (ε=49,600 M^−1 cm^−1), respectively. The kinetic parameters were determined by nonlinear regression analysis (ENZFITTER software program, Elsevier-Biosoft, Cambridge, UK) using the Michaelis-Menten model.
Kinetic parameters were determined following conventional methods. See also Example 1 above.

Data set [2] deals with Trametes versicolor laccase. As to conditions: ABTS as substrate, optimum 55 °C at pH 4.0, cited from earlier work.
Data set [3] deals with Trametes C30 laccase LAC2. As to conditions: ABTS as substrate, optimum 55 °C at pH 5.7, cited from earlier work.
For data set [4], the system named is Trametes pubescens laccase LAP2. The conditions noted are these: ABTS as substrate, optimum 25 °C at pH 4.0, cited from earlier work.
Another data set deals with Cerrena unicolor laccase. The conditions noted are these: ABTS as substrate; optimum 70 °C at pH 3.5; cited from earlier work.
Data set [5] deals with Panus(Lentinus)tigrinus 8/18 laccase. The conditions noted are these: ABTS as substrate; cited from earlier work.
In the next data set the test system is Agaricus blazei laccase. The conditions noted are these: ABTS as substrate, optimum 25 °C at pH 2.3, cited from earlier work.
Another data set deals with Panus tigrinus laccase. As to conditions: ABTS as substrate, optimum 30 °C at pH 3.5, cited from earlier work.
Data set [6] deals with Pleurofus sajor-caju laccase. The conditions noted are these: ABTS as substrate, optimum 40 °C at pH 5.0, cited from earlier work.
The subject of data set [7] is Pycnoporus sanguineus laccase. As to conditions: ABTS as substrate, optimum 25 °C at pH 3.0, cited from earlier work.
Data set [8] in a line: Laccase activity in culture media of recombinant P. pastoris. The format is biochemical. The conditions noted are these: expressed in P. pastoris X-33; 13-26 day (Lcc1-3) or 18-day (LccA) cultivation. The source says: The EasySelect™ Pichia Expression System (Invitrogen) was used in this study for expression of Lcc1, Lcc2, and Lcc3 laccases. cDNA fragments coding for these three laccases were cloned into Pichia expression vector pPICZA or pPICZaB via EcoRI and NotI restriction sites. More specifically, the lcc1 gene coding for Lcc1 precursor (including a signal peptide sequence) was cloned into pPICA to generate expression plasmid pPICZA-lcc1 and the lcc2 and lcc3 genes coding for mature Lcc2 and Lcc3 were cloned into pPICZaB to obtain expression plasmids pPICZaB-lcc2 and pPICZaB-lcc3, respectively. The three expression plasmids were introduced into P. pastoris X-33 cells following the method described in Invitrogen's protocol. Positive transformants were cultured in BMMY (1% yeast extract, 2% peptone, 100 mM potassium phosphate, pH 6.0, 1.34% yeast nitrogen base, 0.00004% biotin, and 0.5% methanol) at 25° C., 200 rpm for 12-26 days. Methanol was added to the culture media daily to reach a final concentration of 0.5%. During the cultivation, 1 ml of the supernatant was collected at various time points. The laccase activity and cell density in the supernatant were determined following the method described above or routine procedures.
pPICZ-lccA was introduced into Pichia pastoris strain X-33 host cells (Invitrogen) and positive transformants were selected for LccA expression. Briefly, a positive transformant was cultured in BMMY medium containing 1% yeast extract, 2% peptone, 1.34% yeast nitrogen base, 0.00004% biotin, and 0.5% methanol at 25° C. and 200 rpm for 20 days. Methanol was daily added to reach a final concentration of 0.5%. Within the 20-day cultivation, 1 ml of the supernatant was collected; laccase activity and cell growth were determined.

Substrate in data set [9]: CCn1c(=NN=c2sc3cc(S(=O)(=O)O)ccc3n2CC)sc2cc(S(=O)(=O)O)ccc21
Nature of the data set: purified protein, by the assay type. The conditions noted are these: other: ABTS as substrate, 50 mM citrate buffer, 50 °C, pH 3.0.

Substrate in data set [10]: COc1cccc(OC)c1O
Nature of the data set: Laccase kinetics of purified Cerrena sp. WR1 Lcc3. As to conditions: other: 2,6-DMP as substrate, 50 mM citrate buffer, 70 °C, pH 3.5, pH 3.5. The format is biochemical.

Substrate in data set [11]: COc1ccccc1O
Nature of the data set: Laccase kinetics of purified Cerrena sp. WR1 Lcc3. As to conditions: other: guaiacol as substrate, 50 mM citrate buffer, 70 °C, pH 4.5, pH 4.5. The format is biochemical.

[12] abbreviates: ABTS as substrate, optimum 70 °C at pH 2.5.
The mark [13] stands for this setting: 2,6-DMP as substrate, optimum 60 °C at pH 3.5.
Where [14] appears, read: guaiacol as substrate, optimum 70 °C at pH 5.0.

Turning to `CCn1c(=NN=c2sc3cc(S(=O)(=O)O)ccc3n2CC)sc2cc(S(=O)(=O)O)ccc21` [ABTS, 2,2′-azino-bis-(3-ethylbenzthiazoline-6-sulfonic acid)], the Km in data set [1] (setting [12]) was 8.4 µM; in data set [2] (Table 2), 37.3 µM; in data set [2] (Table 4), 37.3 µM; in data set [3] (Table 2), 536 µM; in data set [3] (Table 4), 536 µM; in [4] (Table 2), 43 µM. The Km in [4] (Table 4) is 43 µM; in the data set with Cerrena unicolor laccase, 800 µM; in data set [5] it was 33.4 µM; in the data set with Agaricus blazei laccase (Table 2), 63 µM; in the data set with Agaricus blazei laccase (Table 4), 63 µM; in the data set on Panus tigrinus laccase (Table 2) it was 31 µM. Also, the Km in the data set on Panus tigrinus laccase (Table 4) was 31 µM; in data set [6] (Table 2), 56 µM; in data set [6] (Table 4) it was 56 µM; in data set [7] (Table 2), 77 µM; in data set [7] (Table 4) it was 77 µM. The kcat was 2016.5 s⁻¹ in [1] (setting [12]); 351.3 s⁻¹ in data set [2]; 683.33 s⁻¹ in data set [3]; 350 s⁻¹ in data set [4]; 21 s⁻¹ with Agaricus blazei laccase; 185.69 s⁻¹ in the data set on Panus tigrinus laccase. Further, the values for the kcat in data set [6] and in data set [7] were 520.24 s⁻¹ and 1.155 s⁻¹, respectively.
In the case of `COc1cccc(OC)c1O` [2,6-DMP, 2,6-dimethoxyphenol], in data set [1] (setting [13]), the Km worked out at 434 µM and the kcat was 121.9 s⁻¹.
In the case of `COc1ccccc1O` [guaiacol], in data set [1] (setting [14]), the Km was determined as 524 µM and the kcat came to 305.5 s⁻¹.

B1: Lcc2: laccase from Cerrena sp. WR1, GenBank accession no. GQ899202; SEQ ID NO:2 mature, 8 precursor (protein)
chain: AIGPVTDLTITNATISPDGFSRQAVLAGGVFPGPLITGNKGDNFQINVVNSLENSDMLKSTTIHWHGFFQKGTNWADGPAFVNQCPIATGNSFLYNFNADDQAGTFWYHSHLSTQYCDGLRGPMVVYDPNDPHASLYDVDDESTVITLADWYHTLARLGAAFPTADATLINGLGRYSDGTTSDLAVITVESGKRYRFRLVNISCDPNYTFSIDNHTFTVIEVDGVNHAALDVDEIQIFAGQRYSFVLTANQTVDNYWIRANPNLGTTGFDNGINSAILRYSGANETEPTTTQTTATAALSEASLVPLEDPAAPGEAVAGGVDYALNLAFAFDGANLDFTVNGETYVSPTVPVLLQILSGASSVSDLLPAGSVYSLPSNSTIELSMPGGVVGGGHPLHLHGHAFSVVRSAGSDTYNYVNPPRRDVVNIGAAGDNVTIRFTTDNPGPWFLHCHIDFHLEAGFAVVFAEDFNATASSNTVTTEWSNLCTTYDALSADDQ
modifications: Cerrena sp
In the case of B1, the “laccase activity in culture media” value in data set [8] is recorded as approximately 160 U/L.

B2: Lcc1: laccase from Cerrena sp. WR1, GenBank accession no. GQ899201; SEQ ID NO:1 mature, 7 precursor (protein)
chain: AIGPVTDLEITNGTISPDGYSRAAVLAGGSFPGPLITGNKSDNFQINVVNSLADSDMLKSTTVHWHGFFQKGTNWADGPAFVNQCPIATGNSFLYNFNATDQAGTFWYHSHLETQYCDGLRGPMVVYDPDDPHADLYDVDDDSTVITLADWYHTLARLGAAFPTSDATLINGLGRYSDGNTTDLAVITVESGKRYRFRLVSISCDPNFTFSIDNHTMTIIEADAVNYTPLDVDEIQIFAGQRYSFILTANQTVDNYWIRADPNVGTTGFDNGINSAILRYSGADEVEPTTNQTTSTNPLVEANLVPLDGAAAPGEAVAGGVDYALNLALAFDGTNLDFTVNGYEYTSPTVPVLLQILSGASSVDDLLPSGSIYSLPSNSTIELSIPALAVGAPHPIHLHGHTFSVVRSAGSTTYNYDNPPRRDVVSIGTATDDNVTIRFTTDNPGPWFLHCHIDFHLEAGFAVVFAEDFNDTASANTVTTEWSDLCTTYDALSSDDL
modifications: Cerrena sp
As to B2, the “laccase activity in culture media” value in data set [8] is “approximately 800 U/L”.

B3: LccA: laccase from Lentinus sp., GenBank accession no. FJ693715; SEQ ID NO:4 mature, 10 precursor (protein)
chain: GIGPIASLVVTDAQISPDGYLRDAIVTNGVFPAPLITGRKGDHFQLNVVDSMTNHTMLKSTSIHWHGFFQKGTNWADGPAFVNQCPISSGHSFLYDFHVPDQAGTFWYHSHLSTQYCDGLRGPMVVYDPNDPHANLYDIDNDSTVITLADWYHVAAKLGPRFPLGADATLINGKGRSPATPTAALSVINVVKGKRYRFRLVSISCDPNYVFSIDNHTMTVIEADTVNTQPLAVDSIQIFAAQRYSFILNANQPVDNYWIRANPNFGNVGFTDGINSAILRYTGAALVEPSATTAPTLSNPLVETNLHPLAPMPVPGQPVSGGVDKAINFAFNFDGTDFFINGASFVPPTVPVLLQIMSGASTAQDLLPSGSVYPLPSNATIELSFPATAAAPGAPHPFHLHGHVFAVVRSAGSTTYNYNNPIWRDVVSTGTPAAGDNVTIRFSTNNPGPWFLHCHIDFHLEAGFAVVMAEDVPDIPSANPVPQAWSNLCPTYNALSSDDQ
modifications: Lentinus sp
Take B3: in [8], the “laccase activity in culture media” value was “about 400 U/L”.

B4: Cerrena sp. WR1 laccase Lcc3, wild type (mature SEQ ID NO: 3; precursor SEQ ID NO: 9; GenBank GQ899203) (Cerrena sp. WR1) (protein)
chain: AIGPVADLHITDANVSPDGFTRPAVLAGGTFPGPLITGKQGDNFQINVIDELTDATMLKSTSIHWHGIFQKGTNWADGPSFVNQCPITTGNSFLYDFSVPDQTGTYWYHSHLSTQYCDGLRGALVIYDDNDPHKDLYDVDDETTVITLADWYHTQARLITGVPVSDATLINGLGRYLNGPTDAPLAVITVDQGKRYRFRLVSISCDPNFVFSIDNHSMTVIEVDAVNSQPLVVDSIQIFAAQRYSFILNANQSVGNYWIRANPNLGNTGFTNGINSAILRYNGAPVAEPNTTQTASTNPLNEVNLHPLVPTPVPGTPQPGGVDVVQNLVLGFSGGKFTINGVAFSPPTVPVLLQILSGTTTAQDLLPTGSIIELPLGKTVELTLAAGVLGGPHPFHLHGHTFHVVRSAGQTTPNYVDPILRDTVNTGAAGDNVTIRFTTDNPGPWFLHCHIDWHLEAGFAVVFAEGLNQTNAANPTPDAWNNLCDLYNALPAGDQ
notes: WR1 culture supernatant (Q Sepharose); precursor 516 aa with 21-residue signal peptide
Take B4: the Km in data set [9] amounted to 3.27 µM; in [10] it was 392.7 µM; in data set [11] it was 849.1 µM. Besides, the values for the kcat in data set [9], in data set [10] and in data set [11] were 934.6 s⁻¹, 109 s⁻¹ and 148 s⁻¹, respectively. Also, in [10], the kcat/Km was found to be 280000 M⁻¹ s⁻¹.

One may read the Km as the concentration of substrate that gives half-maximal velocity. The term kcat denotes the maximal rate divided by the concentration of active sites. For orientation: kcat/Km means the second-order rate constant that governs catalysis at low substrate concentration.
